Key:
[1] = target: Serine/threonine-protein kinase 35 (Homo sapiens) (UniProt Q8TDR2); details: Compound concentration 1000.0 nM
[2] = target: Mitogen-activated protein kinase 11 (Homo sapiens) (UniProt Q15759); details: Compound concentration 1000.0 nM
[3] = target: Beta-2 adrenergic receptor (Homo sapiens) (UniProt P07550); details: Compound concentration 10.0 uM
[4] = target: Aurora kinase B (Homo sapiens) (UniProt Q96GD4); details: Compound concentration 1000.0 nM
[5] = target: Prostaglandin G/H synthase 2 (Homo sapiens) (UniProt P35354); assay: COX-2 Eurofins-Panlabs selectivity data (BI); details: Compound concentration 10.0 uM
[6] = target: Dual serine/threonine and tyrosine protein kinase (Homo sapiens) (UniProt Q6XUX3); details: Compound concentration 1000.0 nM
[7] = target: Type-2 angiotensin II receptor (Homo sapiens) (UniProt P50052); assay: AT2/HU Eurofins-Panlabs selectivity data (BI); details: Compound concentration 10.0 uM
[8] = target: Fibroblast growth factor receptor 4 (Homo sapiens) (UniProt P22455); details: Compound concentration 1000.0 nM
[9] = target: G protein-coupled receptor kinase 3 (Homo sapiens) (UniProt P35626); details: Compound concentration 1000.0 nM
[10] = target: Serine/threonine-protein kinase MAK (Homo sapiens) (UniProt P20794); details: Compound concentration 1000.0 nM
[11] = target: Calcium/calmodulin-dependent protein kinase type 1D (Homo sapiens) (UniProt Q8IU85); details: Compound concentration 1000.0 nM
[12] = target: Non-receptor tyrosine-protein kinase TYK2 (Homo sapiens) (UniProt P29597); details: Compound concentration 1000.0 nM
[13] = target: Nitric oxide synthase 3 (Bos taurus) (UniProt P29473); assay: ENOS_MDS Eurofins-Panlabs selectivity data (BI); details: Compound concentration 10.0 uM
[14] = system: Epidermal growth factor receptor (Homo sapiens), P00533 [G719S]; details: Compound concentration 1000.0 nM
[15] = target: Voltage-dependent N-type calcium channel subunit alpha-1B (Rattus norvegicus) (UniProt Q02294); assay: CA+/N/RA Eurofins-Panlabs selectivity data (BI); details: Compound concentration 10.0 uM
[16] = system: Tyrosine-protein kinase ABL1 (Homo sapiens), P00519 [Y253F]; details: Compound concentration 1000.0 nM
[17] = target: Calcium/calmodulin-dependent protein kinase type IV (Homo sapiens) (UniProt Q16566); details: Compound concentration 1000.0 nM
[18] = target: Rhodopsin kinase GRK1 (Homo sapiens) (UniProt Q15835); details: Compound concentration 1000.0 nM
[19] = system: Tyrosine-protein kinase ABL1 (Homo sapiens), P00519 [F317L]; details: Compound concentration 1000.0 nM
[20] = target: Ribosomal protein S6 kinase alpha-4 (Homo sapiens) (UniProt O75676); details: Compound concentration 1000.0 nM
[21] = target: Aurora kinase C (Homo sapiens) (UniProt Q9UQB9); details: Compound concentration 1000.0 nM
[22] = target: Serine/threonine-protein kinase Nek5 (Homo sapiens) (UniProt Q6P3R8); details: Compound concentration 1000.0 nM
[23] = target: Serine/threonine-protein kinase pim-1 (Homo sapiens) (UniProt P11309); details: Compound concentration 1000.0 nM
[24] = target: Leukotriene C4 synthase (Cavia porcellus) (UniProt A6XA80); assay: LTC4SYN Eurofins-Panlabs selectivity data (BI); details: Compound concentration 10.0 uM
[25] = target: cAMP-dependent protein kinase catalytic subunit PRKX (Homo sapiens) (UniProt P51817); details: Compound concentration 1000.0 nM
[26] = target: 5-hydroxytryptamine receptor 2C (Homo sapiens) (UniProt P28335); details: Compound concentration 10.0 uM
[27] = target: Serotonin 2 (5-HT2) receptor (Rattus norvegicus) (UniProt P30994+P08909+P14842); assay: 5HT2/R Eurofins-Panlabs selectivity data (BI); assay type: protein assay; details: Compound concentration 10.0 uM
[28] = target: Serine/threonine-protein kinase 10 (Homo sapiens) (UniProt O94804); details: Compound concentration 1000.0 nM
[29] = target: Sodium-dependent noradrenaline transporter (Homo sapiens) (UniProt P23975); assay: NETRANS/H Eurofins-Panlabs selectivity data (BI); details: Compound concentration 10.0 uM
[30] = target: Mitogen-activated protein kinase kinase kinase 20 (Homo sapiens) (UniProt Q9NYL2); details: Compound concentration 1000.0 nM
[31] = target: Cyclin-dependent kinase 8 (Homo sapiens) (UniProt P49336); details: Compound concentration 1000.0 nM
[32] = target: STE20-like serine/threonine-protein kinase (Homo sapiens) (UniProt Q9H2G2); details: Compound concentration 1000.0 nM
[33] = target: Sodium-dependent serotonin transporter (Homo sapiens) (UniProt P31645); details: Compound concentration 10.0 uM
[34] = target: Cyclin-dependent kinase 2 (Homo sapiens) (UniProt P24941); details: Compound concentration 1000.0 nM
[35] = system: Mast/stem cell growth factor receptor Kit (Homo sapiens), P10721 [V559D]; details: Compound concentration 1000.0 nM
[36] = target: Mitogen-activated protein kinase kinase kinase kinase 3 (Homo sapiens) (UniProt Q8IVH8); details: Compound concentration 1000.0 nM
[37] = target: Myosin light chain kinase 2, skeletal/cardiac muscle (Homo sapiens) (UniProt Q9H1R3); details: Compound concentration 1000.0 nM
[38] = target: Mitogen-activated protein kinase kinase kinase 12 (Homo sapiens) (UniProt Q12852); details: Compound concentration 1000.0 nM
[39] = target: Phosphatidylinositol 4-phosphate 3-kinase C2 domain-containing subunit beta (Homo sapiens) (UniProt O00750); details: Compound concentration 1000.0 nM
[40] = target: Casein kinase II subunit alpha (Homo sapiens) (UniProt P68400); details: Compound concentration 1000.0 nM
[41] = target: GABA-A receptor; anion channel (Rattus norvegicus) (UniProt O09028+P15431+P18506+P18508+P19969+P20236+P23574+P23576+P28471+P28473+P30191+P62813+P63079+P63138+Q91ZM7+Q9ES14); details: Compound concentration 10.0 uM
[42] = target: Serine/threonine-protein kinase 38-like (Homo sapiens) (UniProt Q9Y2H1); details: Compound concentration 1000.0 nM
[43] = target: Focal adhesion kinase 1 (Homo sapiens) (UniProt Q05397); details: Compound concentration 1000.0 nM
[44] = target: Serine/threonine-protein kinase ULK1 (Homo sapiens) (UniProt O75385); details: Compound concentration 1000.0 nM

Chain of Casein kinase II subunit alpha (Homo sapiens) (P68400 whole entry, looked up): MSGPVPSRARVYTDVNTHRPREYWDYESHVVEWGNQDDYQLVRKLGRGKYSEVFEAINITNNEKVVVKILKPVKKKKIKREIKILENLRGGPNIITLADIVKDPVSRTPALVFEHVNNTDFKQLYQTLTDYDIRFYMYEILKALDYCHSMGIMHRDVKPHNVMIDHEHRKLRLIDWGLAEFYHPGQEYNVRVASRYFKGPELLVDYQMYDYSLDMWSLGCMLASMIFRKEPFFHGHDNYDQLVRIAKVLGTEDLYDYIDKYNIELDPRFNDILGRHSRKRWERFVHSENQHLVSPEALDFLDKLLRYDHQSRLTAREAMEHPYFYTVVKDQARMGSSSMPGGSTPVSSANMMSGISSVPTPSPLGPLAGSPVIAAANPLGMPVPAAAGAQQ
Chain of Myosin light chain kinase 2, skeletal/cardiac muscle (Homo sapiens) (Q9H1R3 whole entry): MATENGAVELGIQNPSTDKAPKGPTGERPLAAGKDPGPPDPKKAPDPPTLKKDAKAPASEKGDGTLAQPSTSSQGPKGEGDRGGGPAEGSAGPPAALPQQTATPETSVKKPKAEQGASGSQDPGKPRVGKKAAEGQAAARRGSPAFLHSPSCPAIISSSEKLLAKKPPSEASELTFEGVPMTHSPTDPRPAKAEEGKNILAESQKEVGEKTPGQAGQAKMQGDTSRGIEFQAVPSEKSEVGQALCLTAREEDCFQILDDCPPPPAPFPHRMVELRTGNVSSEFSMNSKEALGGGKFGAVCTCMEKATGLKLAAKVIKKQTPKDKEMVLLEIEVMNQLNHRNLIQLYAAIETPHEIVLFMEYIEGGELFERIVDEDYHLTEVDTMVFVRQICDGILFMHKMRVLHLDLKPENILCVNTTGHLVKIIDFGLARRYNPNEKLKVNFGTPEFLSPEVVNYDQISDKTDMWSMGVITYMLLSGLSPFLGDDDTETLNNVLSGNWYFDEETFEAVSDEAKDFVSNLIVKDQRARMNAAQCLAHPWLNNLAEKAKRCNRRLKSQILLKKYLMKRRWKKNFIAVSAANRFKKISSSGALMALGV
Chain of 5-hydroxytryptamine receptor 2C (Homo sapiens) (P28335 whole entry): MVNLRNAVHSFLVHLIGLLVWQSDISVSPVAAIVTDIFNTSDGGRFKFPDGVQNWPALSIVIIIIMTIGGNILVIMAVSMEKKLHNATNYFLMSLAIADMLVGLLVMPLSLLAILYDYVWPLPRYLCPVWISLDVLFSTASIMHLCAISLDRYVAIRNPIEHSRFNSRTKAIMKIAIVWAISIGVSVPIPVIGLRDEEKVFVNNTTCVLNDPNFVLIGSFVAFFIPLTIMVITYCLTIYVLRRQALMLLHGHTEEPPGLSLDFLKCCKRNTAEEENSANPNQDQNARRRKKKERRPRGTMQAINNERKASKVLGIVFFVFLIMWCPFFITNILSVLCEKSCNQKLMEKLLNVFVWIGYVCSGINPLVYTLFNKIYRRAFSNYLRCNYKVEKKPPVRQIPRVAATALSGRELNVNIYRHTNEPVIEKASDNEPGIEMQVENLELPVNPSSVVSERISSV
Chain of Phosphatidylinositol 4-phosphate 3-kinase C2 domain-containing subunit beta (Homo sapiens) (O00750 whole entry, the tested form may be a part): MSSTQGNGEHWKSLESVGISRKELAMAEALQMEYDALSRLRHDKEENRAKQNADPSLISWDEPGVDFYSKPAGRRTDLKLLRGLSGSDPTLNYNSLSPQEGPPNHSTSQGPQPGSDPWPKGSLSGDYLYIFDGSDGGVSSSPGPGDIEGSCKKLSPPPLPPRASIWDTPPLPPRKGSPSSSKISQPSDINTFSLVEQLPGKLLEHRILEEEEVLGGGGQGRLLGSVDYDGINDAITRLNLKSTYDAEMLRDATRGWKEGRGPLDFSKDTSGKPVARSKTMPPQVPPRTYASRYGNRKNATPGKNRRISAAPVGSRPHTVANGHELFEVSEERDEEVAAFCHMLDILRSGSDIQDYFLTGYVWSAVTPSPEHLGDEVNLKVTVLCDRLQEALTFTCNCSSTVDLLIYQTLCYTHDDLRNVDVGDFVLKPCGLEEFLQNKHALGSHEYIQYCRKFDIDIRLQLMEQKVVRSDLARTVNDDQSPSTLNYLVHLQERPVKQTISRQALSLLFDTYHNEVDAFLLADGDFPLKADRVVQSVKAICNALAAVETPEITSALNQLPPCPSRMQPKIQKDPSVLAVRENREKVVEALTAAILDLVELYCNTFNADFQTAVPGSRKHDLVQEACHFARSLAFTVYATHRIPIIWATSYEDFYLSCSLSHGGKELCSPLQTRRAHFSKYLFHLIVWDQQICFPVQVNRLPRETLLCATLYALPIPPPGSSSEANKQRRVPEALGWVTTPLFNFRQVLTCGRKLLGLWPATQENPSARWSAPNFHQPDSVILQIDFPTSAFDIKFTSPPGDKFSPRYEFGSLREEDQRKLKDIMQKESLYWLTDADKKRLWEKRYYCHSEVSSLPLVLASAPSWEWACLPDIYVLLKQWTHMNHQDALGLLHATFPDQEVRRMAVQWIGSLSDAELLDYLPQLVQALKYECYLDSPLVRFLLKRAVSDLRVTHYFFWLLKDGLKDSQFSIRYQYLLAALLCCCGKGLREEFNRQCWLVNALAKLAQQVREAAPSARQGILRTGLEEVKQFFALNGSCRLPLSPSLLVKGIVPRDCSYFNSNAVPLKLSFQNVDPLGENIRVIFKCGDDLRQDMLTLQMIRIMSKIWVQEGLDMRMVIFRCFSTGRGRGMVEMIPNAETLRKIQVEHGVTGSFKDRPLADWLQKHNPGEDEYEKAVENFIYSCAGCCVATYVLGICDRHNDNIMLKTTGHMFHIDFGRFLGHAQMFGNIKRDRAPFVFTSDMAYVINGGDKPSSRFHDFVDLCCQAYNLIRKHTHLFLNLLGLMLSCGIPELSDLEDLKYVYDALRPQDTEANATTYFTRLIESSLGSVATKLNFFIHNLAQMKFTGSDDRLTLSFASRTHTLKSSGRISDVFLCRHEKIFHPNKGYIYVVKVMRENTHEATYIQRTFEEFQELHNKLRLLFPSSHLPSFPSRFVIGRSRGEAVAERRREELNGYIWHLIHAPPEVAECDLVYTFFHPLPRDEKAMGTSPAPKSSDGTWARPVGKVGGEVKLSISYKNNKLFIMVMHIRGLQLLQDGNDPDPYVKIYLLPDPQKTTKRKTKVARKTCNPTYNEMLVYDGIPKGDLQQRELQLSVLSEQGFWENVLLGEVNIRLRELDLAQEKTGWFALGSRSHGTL
Chain of Mitogen-activated protein kinase 11 (Homo sapiens) (Q15759 whole entry): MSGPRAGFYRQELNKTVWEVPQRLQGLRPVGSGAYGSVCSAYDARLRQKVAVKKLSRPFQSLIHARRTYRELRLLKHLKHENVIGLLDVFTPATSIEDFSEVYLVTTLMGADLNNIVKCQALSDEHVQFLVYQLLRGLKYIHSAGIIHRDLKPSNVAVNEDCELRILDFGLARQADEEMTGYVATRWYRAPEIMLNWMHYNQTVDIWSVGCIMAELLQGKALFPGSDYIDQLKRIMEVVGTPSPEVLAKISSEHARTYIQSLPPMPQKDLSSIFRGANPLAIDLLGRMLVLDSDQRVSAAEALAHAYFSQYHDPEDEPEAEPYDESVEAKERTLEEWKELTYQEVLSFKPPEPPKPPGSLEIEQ
Chain of Serine/threonine-protein kinase 38-like (Homo sapiens) (Q9Y2H1 2-464 limits assumed): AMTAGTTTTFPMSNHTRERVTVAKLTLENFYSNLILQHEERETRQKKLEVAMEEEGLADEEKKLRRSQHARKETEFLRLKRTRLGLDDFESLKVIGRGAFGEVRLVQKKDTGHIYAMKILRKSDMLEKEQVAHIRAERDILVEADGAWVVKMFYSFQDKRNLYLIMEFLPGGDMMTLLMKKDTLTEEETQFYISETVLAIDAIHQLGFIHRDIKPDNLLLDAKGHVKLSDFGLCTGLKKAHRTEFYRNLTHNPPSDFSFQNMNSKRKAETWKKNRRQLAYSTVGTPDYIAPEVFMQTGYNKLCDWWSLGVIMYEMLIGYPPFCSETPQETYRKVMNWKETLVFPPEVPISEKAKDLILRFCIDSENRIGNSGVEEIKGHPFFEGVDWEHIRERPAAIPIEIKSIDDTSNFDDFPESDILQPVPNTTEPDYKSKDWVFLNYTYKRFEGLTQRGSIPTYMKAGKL
Chain of Mitogen-activated protein kinase kinase kinase 12 (Homo sapiens) (Q12852 whole entry, the tested form may be a part): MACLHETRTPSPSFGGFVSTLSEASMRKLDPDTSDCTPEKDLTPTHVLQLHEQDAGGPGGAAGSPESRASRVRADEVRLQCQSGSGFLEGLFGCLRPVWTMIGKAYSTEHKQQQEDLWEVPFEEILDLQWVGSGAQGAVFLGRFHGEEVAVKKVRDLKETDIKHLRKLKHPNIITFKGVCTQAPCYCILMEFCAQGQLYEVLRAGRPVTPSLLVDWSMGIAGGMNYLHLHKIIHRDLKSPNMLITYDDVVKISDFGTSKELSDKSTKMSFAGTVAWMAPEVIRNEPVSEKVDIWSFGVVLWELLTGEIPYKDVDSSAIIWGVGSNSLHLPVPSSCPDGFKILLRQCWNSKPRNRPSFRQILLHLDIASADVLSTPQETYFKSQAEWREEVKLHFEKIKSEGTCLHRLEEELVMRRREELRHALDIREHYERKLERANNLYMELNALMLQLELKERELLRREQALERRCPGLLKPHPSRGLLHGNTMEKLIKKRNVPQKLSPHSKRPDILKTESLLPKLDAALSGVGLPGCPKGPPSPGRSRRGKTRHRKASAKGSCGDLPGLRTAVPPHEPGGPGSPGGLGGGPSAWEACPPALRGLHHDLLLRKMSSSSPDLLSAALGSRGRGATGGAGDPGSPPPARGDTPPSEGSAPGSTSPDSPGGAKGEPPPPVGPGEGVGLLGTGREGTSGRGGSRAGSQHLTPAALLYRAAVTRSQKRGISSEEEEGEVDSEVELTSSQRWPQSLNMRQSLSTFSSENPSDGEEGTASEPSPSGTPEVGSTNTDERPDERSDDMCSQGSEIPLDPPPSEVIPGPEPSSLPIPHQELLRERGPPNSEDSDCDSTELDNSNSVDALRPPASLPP
Chain of Leukotriene C4 synthase (Cavia porcellus) (A6XA80 whole entry): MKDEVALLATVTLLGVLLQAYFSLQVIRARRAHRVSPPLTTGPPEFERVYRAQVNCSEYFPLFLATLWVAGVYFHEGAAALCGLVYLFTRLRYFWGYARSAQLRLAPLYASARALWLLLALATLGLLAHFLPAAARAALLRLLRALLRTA

CCOCCn1cc(C(=O)Nc2ccc(-n3nc(-c4cccnc4)cc3C(F)(F)F)cn2)ccc1=O [BI 1935]
inactive: residual activity [1] 94% | residual activity [2] 80% | inhibition [3] -1.17% | residual activity [4] 100% | residual activity [5] 108% | residual activity [6] 61% | residual activity [7] 97% | residual activity [8] 100% | residual activity [9] 76% | residual activity [10] 89% | residual activity [11] 100% | residual activity [12] 100% | residual activity [13] 111% | residual activity [14] 100% | residual activity [15] 102% | residual activity [16] 73% | residual activity [17] 100% | residual activity [18] 74% | residual activity [19] 100% | residual activity [20] 80% | residual activity [21] 88% | residual activity [22] 100% | residual activity [23] 100% | residual activity [24] 112% | residual activity [25] 100% | inhibition [26] 3.75% | residual activity [27] 87% | residual activity [28] 100% | residual activity [29] 97% | residual activity [30] 73% | residual activity [31] 100% | residual activity [32] 100% | inhibition [33] 8.63% | residual activity [34] 100% | residual activity [35] 87% | residual activity [36] 85% | residual activity [37] 89% | residual activity [38] 100% | residual activity [39] 72% | residual activity [40] 70% | inhibition [41] 18.1% | residual activity [42] 66% | residual activity [43] 100% | residual activity [44] 76%

From ChEMBL document CHEMBL4507283, “Data for DCP probe BI-1935” (2021)
